This passage reports IC50 results from patent US20240317725A1, “LPA1 SMALL MOLECULE ANTAGONIST” (TUOJIE BIOTECH (SHANGHAI) CO., LTD., priority 2021, published 2024).

The assay addresses T1, human lysophosphatidic acid receptor 1 (LPAR1) (Homo sapiens, UniProt Q92633).
T1 construct: host or cells: CHO-K1 (Chinese hamster ovary K1) cells, CHO-K1/LPA1R, kept under hygromycin B selection
Briefly: FLIPR test of antagonist properties: inhibition of LPA-induced intracellular calcium elevation in CHO-K1 cells expressing hLPAR1. In kind it is cell-based. Particulars: FLIPR calcium assay, CHO-K1/LPA1R cells, LPA at EC80. The protocol:
The antagonist properties of the compounds of the present disclosure were tested using the FLIPR (fluorometric imaging plate reader) method. The compounds are inhibitors of intracellular calcium elevation induced by activation of hLPARI (human lysophosphatidic acid receptor 1) expressed in CHO-K1 cells (Chinese hamster ovary K1 cells, HDB).
2.1. Reaction buffer: HBSS+20 mM HEPES+0.1% fatty acid-free BSA+0.001% F-127
2.2. 50×Red dye: (a red dye for blocking background signals in cells) prepared by: weighing out 4 g of tartrazine and 10.2 g of acid red and dissolving them in 100 mL of H2O.
2.3. Fluo-8 staining mixture: 4 mL of reaction buffer, 32 μL of fluo-8, 320 μL of 50×Red dye, and 40 μL of probenecid.
3.1. LPA: dissolved in DPBS (containing 0.1% fatty acid-free BSA) to prepare a 0.8 μM stock solution, and the solution was aliquoted and stored at −20° C.
3.2. Test compound preparation: The test compounds were dissolved in DMSO to prepare 10 mM stock solutions, and the solutions were stored at −20° C. In the experiment, the compounds were first gradient-diluted with DMSO (initial concentration of 50 μM, 3-fold dilution, 10 points) to prepare 200×compound solutions. The compound solutions were then diluted with reaction buffer to give 5×compound solutions, and the solutions were transferred to a 384-well plate (Cat. No. 6008590) using Bravo.
4.1. CHO-K1/LPA1R cells were cultured in a cell culture medium (F-12+10% FBS+400 μg/mL hygromycin B).
4.2. When the cell confluence reached 80%, the cells were digested with 0.25% pancreatin.
4.3. When the cells became round, the digestion was stopped with the medium F-12 (10% FBS), and the cells were counted. Then the cell culture was diluted with F-12 (10% FBS) to give a cell suspension with a density of 6.7×10^5 cells/mL.
4.4. The cell suspension was added to a 384-well black cell culture plate at 30 µL/well using a Multidrop auto-dispenser, and the plate was incubated in a 37° C., 5% CO2 incubator for 20-24 h. The medium was changed to a serum-free F-12 medium, and the cells were starved for 24 h.
4.5. Dose experiment for testing LPA. Gradient dilutions of 6×LPA solution (initial concentration of 60 μM, 3-fold dilution, 10 points) were prepared with reaction buffer. The medium in the 384-well black cell culture plate was discarded and changed to reaction buffer. 10 μL of 5% DMSO reaction buffer was added, and 10 μL of Fluo-8 staining mixture was then added. The plate was incubated in the dark in a 37° C., 5% CO2 incubator for 0.5 h.
4.6. FLIPR was correspondingly programmed, the 6×LPA gradient solutions were added, and readings were taken. Two-minute data were collected.
4.7. A reaction curve was obtained from the numerical values of LPA, and the concentration of LPA at EC80 was calculated. A 6×LPA solution was prepared in a 384-well plate (Cat. No. 6008590), and HPE and ZPE were added to corresponding wells. HPE (one hundred per cent effect) was 60 μM LPA, and ZPE (zero per cent effect) was reaction buffer.
4.8. Testing of compounds. The medium in the 384-well black cell culture plate was discarded and changed to reaction buffer. 10 μL of 5×compound solution was transferred using Bravo, and then 10 μL of Fluo-8 staining mixture was added immediately. The plate was incubated in the dark in a 37° C., 5% CO2 incubator for 0.5 h.
4.9. FLIPR was correspondingly programmed, the 6×LPA solution was added, and readings were taken. Two-minute data were collected.
4.10. Finally, the output fluorescence counts were analyzed, and IC50 was calculated for the compounds.

T1 sequence (Q92633 whole entry): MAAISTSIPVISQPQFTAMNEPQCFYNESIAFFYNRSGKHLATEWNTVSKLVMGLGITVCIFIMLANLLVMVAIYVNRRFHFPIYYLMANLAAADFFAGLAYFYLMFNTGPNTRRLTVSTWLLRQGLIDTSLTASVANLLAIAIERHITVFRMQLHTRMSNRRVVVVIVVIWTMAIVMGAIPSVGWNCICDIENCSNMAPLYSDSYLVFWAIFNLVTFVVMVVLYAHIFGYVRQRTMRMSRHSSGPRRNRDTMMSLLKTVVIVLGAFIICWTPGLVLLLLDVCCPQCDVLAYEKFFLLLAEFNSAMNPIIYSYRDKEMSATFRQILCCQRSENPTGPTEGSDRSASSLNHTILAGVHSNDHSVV

Regarding `Cc1nc(-c2nnn(C)c2COc2nccc(C(F)(F)F)n2)ccc1OC1CC2CCC(C(=O)O)C2C1` (single isomer, unassigned) [Compound 1-P1, 5-((2-Methyl-6-(1-methyl-5-(((4-(trifluoromethyl)pyrimidin-2-yl)oxy)methyl)-1H-1,2,3-triazol-4-yl)pyridin-3-yl)oxy)octahydropentalene-1-carboxylic acid], the IC50 came to 13.3 nM.

`Cc1nc(-c2nnn(C)c2COc2nccc(C(F)(F)F)n2)ccc1OC1CC2CCC(C(=O)O)C2C1` (single isomer, unassigned) [Compound 1-P2, 5-((2-Methyl-6-(1-methyl-5-(((4-(trifluoromethyl)pyrimidin-2-yl)oxy)methyl)-1H-1,2,3-triazol-4-yl)pyridin-3-yl)oxy)octahydropentalene-1-carboxylic acid]: the IC50 worked out at 659 nM.

As to `Cc1nc(-c2nnn(C)c2COc2noc(C3CC3)n2)ccc1OC1CC2CCC(C(=O)O)C2C1` (single isomer, unassigned) [Compound 2-P1, 5-((6-(5-(((5-Cyclopropyl-1,2,4-oxadiazol-3-yl)oxy)methyl)-1-methyl-1H-1,2,3-triazol-4-yl)-2-methylpyridin-3-yl)oxy)octahydropentalene-1-carboxylic acid], the IC50 is 26 nM.

For the molecule `Cc1nc(-c2nnn(C)c2COc2noc(C3CC3)n2)ccc1OC1CC2CCC(C(=O)O)C2C1` (single isomer, unassigned) [Compound 2-P2, 5-((6-(5-(((5-Cyclopropyl-1,2,4-oxadiazol-3-yl)oxy)methyl)-1-methyl-1H-1,2,3-triazol-4-yl)-2-methylpyridin-3-yl)oxy)octahydropentalene-1-carboxylic acid], the IC50 came out at 2690 nM.

Take `COCc1ccnc(OCc2c(-c3ccc(OC4CC5CCC(C(=O)O)C5C4)c(C)n3)nnn2C)n1` (single isomer, unassigned) [Compound 3-P1, 5-((6-(5-(((4-(Methoxymethyl)pyrimidin-2-yl)oxy)methyl)-1-methyl-1H-1,2,3-triazol-4-yl)-2-methylpyridin-3-yl)oxy)octahydropentalene-1-carboxylic acid]: the half-maximal inhibitory concentration (IC50) was 8.7 nM.

For the molecule `COCc1ccnc(OCc2c(-c3ccc(OC4CC5CCC(C(=O)O)C5C4)c(C)n3)nnn2C)n1` (single isomer, unassigned) [Compound 3-P2, 5-((6-(5-(((4-(Methoxymethyl)pyrimidin-2-yl)oxy)methyl)-1-methyl-1H-1,2,3-triazol-4-yl)-2-methylpyridin-3-yl)oxy)octahydropentalene-1-carboxylic acid], the IC50 stood at 1380 nM.

In the case of `CCc1cc(OCc2c(-c3ccc(OC4CC5CCC(C(=O)O)C5C4)c(C)n3)nnn2C)ncn1` (single isomer, unassigned) [Compound 4-P1, 5-((6-(5-(((6-Ethylpyrimidin-4-yl)oxy)methyl)-1-methyl-1H-1,2,3-triazol-4-yl)-2-methylpyridin-3-yl)oxy)octahydropentalene-1-carboxylic acid], the IC50 was 746 nM.

Take `CCc1cc(OCc2c(-c3ccc(OC4CC5CCC(C(=O)O)C5C4)c(C)n3)nnn2C)ncn1` (single isomer, unassigned) [Compound 4-P2, 5-((6-(5-(((6-Ethylpyrimidin-4-yl)oxy)methyl)-1-methyl-1H-1,2,3-triazol-4-yl)-2-methylpyridin-3-yl)oxy)octahydropentalene-1-carboxylic acid]: the IC50 was 35.8 nM.

With `COCc1ccnc(OCc2c(-c3ccc(OC4CC5CCC(F)(C(=O)O)C5C4)c(C)n3)nnn2C)n1` (single isomer, unassigned) [Compound 5-P1, 1-Fluoro-5-((6-(5-(((4-(methoxymethyl)pyrimidin-2-yl)oxy)methyl)-1-methyl-1H-1,2,3-triazol-4-yl)-2-methylpyridin-3-yl)oxy)octahydropentalene-1-carboxylic acid], the half-maximal inhibitory concentration (IC50) came out at 15.6 nM.

With `COCc1ccnc(OCc2c(-c3ccc(OC4CC5CCC(F)(C(=O)O)C5C4)c(C)n3)nnn2C)n1` (single isomer, unassigned) [Compound 5-P2, 1-Fluoro-5-((6-(5-(((4-(methoxymethyl)pyrimidin-2-yl)oxy)methyl)-1-methyl-1H-1,2,3-triazol-4-yl)-2-methylpyridin-3-yl)oxy)octahydropentalene-1-carboxylic acid], the IC50 was 917 nM.

On to `Cc1nc(-c2nnn(C)c2COc2nccc(O[C@@H]3CCOC3)n2)ccc1OC1CC2CCC(C(=O)O)C2C1` (single isomer, unassigned) [Compound 8-P1], for which the IC50 came out at 28 nM.

`Cc1nc(-c2nnn(C)c2COc2nccc(O[C@@H]3CCOC3)n2)ccc1OC1CC2CCC(C(=O)O)C2C1` (single isomer, unassigned) [Compound 8-P2]: the IC50 came to 502 nM.

As for `Cc1nc(-c2nnn(C)c2COc2nccc(O[C@H]3CCOC3)n2)ccc1OC1CC2CCC(C(=O)O)C2C1` (single isomer, unassigned) [Compound 9-P1], the IC50 turned out to be 33.4 nM.

As to `Cc1nc(-c2nnn(C)c2COc2nccc(O[C@H]3CCOC3)n2)ccc1OC1CC2CCC(C(=O)O)C2C1` (single isomer, unassigned) [Compound 9-P2], the IC50 amounted to 853 nM.

As for `Cc1nc(-c2nnn(C)c2COc2nccc(C(C)(C)O)n2)ccc1OC1CC2CCC(C(=O)O)C2C1` (single isomer, unassigned) [Compound 10-P1, 5-((6-(5-(((4-(2-Hydroxypropan-2-yl)pyrimidin-2-yl)oxy)methyl)-1-methyl-1H-1,2,3-triazol-4-yl)-2-methylpyridin-3-yl)oxy)octahydropentalene-1-carboxylic acid], the half-inhibitory concentration (IC50) turned out to be 88.7 nM.

With `Cc1nc(-c2nnn(C)c2COc2nccc(C(C)(C)O)n2)ccc1OC1CC2CCC(C(=O)O)C2C1` (single isomer, unassigned) [Compound 10-P2, 5-((6-(5-(((4-(2-Hydroxypropan-2-yl)pyrimidin-2-yl)oxy)methyl)-1-methyl-1H-1,2,3-triazol-4-yl)-2-methylpyridin-3-yl)oxy)octahydropentalene-1-carboxylic acid], the IC50 was 1860 nM.

Take `COc1ccnc(OCc2c(-c3ccc(OC4CC5CCC(C(=O)O)C5C4)c(C)n3)nnn2C)n1` (single isomer, unassigned) [Compound 11-P1, 5-((6-(5-(((4-Methoxypyrimidin-2-yl)oxy)methyl)-1-methyl-1H-1,2,3-triazol-4-yl)-2-methylpyridin-3-yl)oxy)octahydropentalene-1-carboxylic acid]: the IC50 was over 10000 nM.

In the case of `COc1ccnc(OCc2c(-c3ccc(OC4CC5CCC(C(=O)O)C5C4)c(C)n3)nnn2C)n1` (single isomer, unassigned) [Compound 11-P2, 5-((6-(5-(((4-Methoxypyrimidin-2-yl)oxy)methyl)-1-methyl-1H-1,2,3-triazol-4-yl)-2-methylpyridin-3-yl)oxy)octahydropentalene-1-carboxylic acid], the IC50 turned out to be 50.6 nM.

For the molecule `CCOCc1ccnc(OCc2c(-c3ccc(OC4CC5CCC(C(=O)O)C5C4)c(C)n3)nnn2C)n1` (single isomer, unassigned) [Compound 13-P1, 5-((6-(5-(((4-(Ethoxymethyl)pyrimidin-2-yl)oxy)methyl)-1-methyl-1H-1,2,3-triazol-4-yl)-2-methylpyridin-3-yl)oxy)octahydropentalene-1-carboxylic acid], the IC50 was found to be 1090 nM.

Take `CCOCc1ccnc(OCc2c(-c3ccc(OC4CC5CCC(C(=O)O)C5C4)c(C)n3)nnn2C)n1` (single isomer, unassigned) [Compound 13-P2, 5-((6-(5-(((4-(Ethoxymethyl)pyrimidin-2-yl)oxy)methyl)-1-methyl-1H-1,2,3-triazol-4-yl)-2-methylpyridin-3-yl)oxy)octahydropentalene-1-carboxylic acid]: the half-maximal inhibitory concentration (IC50) turned out to be 27.9 nM.
